Assay results published in paper PMC7248098, “Biochemical characterization and inhibition of the alternative oxidase enzyme from the fungal phytopathogen Moniliophthora perniciosa” (Communications Biology, 2020).
Several values for one entry are separate records, joined by “and”; a condition that tells them apart may be missing. Equal values may be shown once. Entries after “also recorded” stand apart in the source; their conditions may differ. Read-outs that look alike come from different tables or passages of the source.

Assays:
Assay type in all cases: biochemical
membrane-bound rMpAOX [1] = target: T1, membrane-bound rMpAOX (Moniliophthora perniciosa, UniProt A8QJP8); assay: Dose-response assay of inhibitors with membrane-bound, GMP-activated rMpAOX (NADH oxidation)
Procedure: (§1) E. coli membrane preparation was performed as described with minor modifications. […] The cells were disrupted using two passes at […] through a pre-cooled Constant cell disruption system (Constant Systems Ltd). The lysate was centrifuged for 15 min at 16,000 rcf, and the pelleted unbroken cells and large cell debris were discarded. The supernatant was centrifuged for 90 min at 200,000 rcf to collect the fragmented membranes.
(§2) Respiration rates were recorded before and after the addition of putative AOX activators, such as 5′-ADP, 5′-AMP, 5′-GDP, 5′-GMP, glyoxylate, oxaloacetate, pyruvate or succinate (1 mM each unless stated otherwise). […] Data were acquired with the Multiskan FC Microplate Photometer (ThermoFisher). […] Absorbance readings were taken periodically and a blank reactions (substrate without enzyme) were included in every assay and were used to determine and subtract the autoxidation rate (background). Proteoliposomes were assayed as described for the E. coli membrane fraction except that no KCN was included and 0.5 µL of the prep (~50 ng rMpAOX) were added into the reaction. When tested, inhibitors were preincubated with the enzyme in reaction buffer for 2–5 min before starting the reaction by the addition of substrate. The path length (i.e., the height of the reaction medium inside the well) was calculated based on the reaction volume and the well cross-section area informed by the supplier. GraphPad Prism 7.0 (GraphPad Software Inc.) was used for function fitting.

membrane-bound rMpAOX [2] = target: T1, membrane-bound rMpAOX; assay: Membrane-bound rMpAOX activity with putative activators (O2 uptake, oxygraph; dose-response); conditions: for Fold-change in membrane-bound rMpAOX O2 uptake: 1 mM each
Procedure: as §1, §2

[3] = target: rMpAOX incorporated into proteoliposomes (Moniliophthora perniciosa, UniProt A8QJP8); assay: rMpAOX incorporated into proteoliposomes with Q10 and NDH-2 (NADH oxidation); conditions: for Km / VMax: substrate ubiquinol-10 in proteoliposomes, ~50 ng rMpAOX, 300 µM NADH
Procedure: Proteoliposomes (PL) were prepared as previously described[44],[45], except that NDH-2 was used instead of complex I and 0.5% DDM was used instead of OG. […] For kinetic studies, PLs were prepared with 50 µg rMpAOX and no NDH-2—in this case, pure NDH-2 was added directly into the enzymatic reaction mixture at a saturating concentration. Briefly, lipids and Q10 stocks in chloroform were mixed in a glass vial and the chloroform dried under a nitrogen stream. The lipids were hydrated and extruded through a 100 nm NanoSizer MINI Liposome Extruder (T&T Scientific) followed by the addition of protein. After treatment with the Bio-Beads SM-2 Resin (Bio-Rad), proteolipososmes were harvested by ultracentrifugation and resuspended in 150 µL of buffer. Enzymatic assays were performed on the same day.
as §2

purified rMpAOX = purified rMpAOX (Moniliophthora perniciosa, UniProt A8QJP8); assay: Purified (detergent-solubilised) rMpAOX, Q1H2 oxidation; conditions: for Activity: [Q1H2]
Procedure: The E. coli membrane fraction was resuspended with 50 mM Tris-HCl pH 7.5, 20% glycerol, 200 mM MgSO4 and 1% Fos-Choline-12 (FC-12) instead of MOPS buffer. The sample was left under gentle rocking for 1 h at 4 °C, after which it was centrifuged at 200,000 rcf for 30 min. […] T. Elthon, Nebraska, USA. Protein content was estimated through the Bradford method[63] and bovine serum albumin as standard.
as §2

[4] = log[I], M -4.60206 (Fig2b), 25 µM
[5] = log[I], M -5.60206 (Fig2b), 2.5 µM
[6] = log[I], M -6.60206 (Fig2b), 0.25 µM
[7] = log[I], M -7.60206 (Fig2b), 0.025 µM
[8] = log[I], M -8.60206 (Fig2b), 0.0025 µM
[9] = log[I], M -9.60206 (Fig2b), 0.00025 µM
[10] = log[I], M -10.6021 (Fig2b), 25 pM
[11] = substrate ubiquinol-1, 0.0125% C12E8, 100 ng rMpAOX

T1 sequence (A8QJP8 entry or part of it): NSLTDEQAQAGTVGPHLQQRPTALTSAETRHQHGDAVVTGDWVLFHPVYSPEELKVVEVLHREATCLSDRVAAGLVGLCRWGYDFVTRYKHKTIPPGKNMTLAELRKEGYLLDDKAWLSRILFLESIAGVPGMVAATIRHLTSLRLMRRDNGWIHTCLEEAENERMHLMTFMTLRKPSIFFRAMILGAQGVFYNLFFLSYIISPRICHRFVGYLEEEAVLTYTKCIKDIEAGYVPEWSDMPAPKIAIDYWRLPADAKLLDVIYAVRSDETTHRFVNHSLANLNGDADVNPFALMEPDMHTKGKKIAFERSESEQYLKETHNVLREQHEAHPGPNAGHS
rMpAOX incorporated into proteoliposomes, sequence (A8QJP8 entry or part of it): as above
purified rMpAOX, sequence (A8QJP8 entry or part of it): as above

## C/C(=C\Cc1c(O)c(Cl)c(C)c(C=O)c1O)CC/C=C(\C)[C@@H]1CC(=O)C(C)(C)O1 [AF, ascofuranone]
membrane-bound rMpAOX [1]; [4]
  Fractional velocity, %: 3.958% and 2.609% and 7.671%
membrane-bound rMpAOX [1]; [5]
  Fractional velocity, %: 3.068% and 1.958% and 7.541%
membrane-bound rMpAOX [1]; [6]
  Fractional velocity, %: 2.9011% and 3.314% and 8.873%
membrane-bound rMpAOX [1]; [7]
  Fractional velocity, %: 31.9402% and 19.7329%
membrane-bound rMpAOX [1]; log[I], M -7.60206 (Fig2b), read-out: Fractional velocity, %
  activity at 0.025 µM: 20.3%
membrane-bound rMpAOX [1]; [8]
  Fractional velocity, %: 81.2456% and 95.1772% and 65.5719%
membrane-bound rMpAOX [1]; [9]
  Fractional velocity, %: 94.8574% and 87.6342%
membrane-bound rMpAOX [1]; log[I], M -9.60206 (Fig2b), read-out: Fractional velocity, %
  activity at 0.00025 µM: 88%
membrane-bound rMpAOX [1]; [10]
  Fractional velocity, %: 94.1707% and 88.3377%
membrane-bound rMpAOX [1]; log[I], M -10.6021 (Fig2b), read-out: Fractional velocity, %
  activity at 25 pM: 93.1%
membrane-bound rMpAOX [1]; membrane-bound, GMP-activated rMpAOX, read-out: IC50
  IC50: 8.8 nM

## Nc1nc2c(ncn2[C@@H]2O[C@H](COP(=O)(O)OP(=O)(O)O)[C@@H](O)[C@H]2O)c(=O)[nH]1 [GDP, 5′-GDP]
membrane-bound rMpAOX [2]; 1 mM activator
  Increase of membrane-bound rMpAOX oxygen uptake: did not have any noticeable effect; also recorded: no effect
membrane-bound rMpAOX [2]; single independent measurements (Fig1a)
  Fold-change in membrane-bound rMpAOX O2 uptake: 1.198 and 1.036 and 1.118
membrane-bound rMpAOX [2]; 6.5 mM
  Increase of rMpAOX basal rate: 1.5 times

## COc1c(O)c(C)c(C/C=C(\C)CC/C=C(\C)CC/C=C(\C)CC/C=C(\C)CC/C=C(\C)CC/C=C(\C)CC/C=C(\C)CC/C=C(\C)CC/C=C(\C)CCC=C(C)C)c(O)c1OC [Q10H2, ubiquinol-10]
[3]; 180 µM Q10H2 in the phospholipid membrane, calculated from KM and VMax
  rMpAOX catalytic rate: 9.3 µmol/min/mg
[3]
  Km: 960 ± 760 µM
  VMax: 59.4 ± 6.6 µmol Q10 min^−1 mg^−1

## CC(=O)C(=O)O [PYR, pyruvate]
membrane-bound rMpAOX [2]; single independent measurements (Fig1a), 1000 µM
  Fold-change in membrane-bound rMpAOX O2 uptake: 0.7655 and 0.9453
membrane-bound rMpAOX [2]; pH 7.5, 1 mM each, single independent measurements (Fig1a), read-out: Fold-change in membrane-bound rMpAOX O2 uptake
  fold induction at 1000 µM: 0.681

## O=C(NO)c1ccccc1O [SHAM, salicylhydroxamic acid]
membrane-bound rMpAOX [1]; [4]
  Fractional velocity, %: 95.8272% and 90.1105%
membrane-bound rMpAOX [1]; [5]
  Fractional velocity, %: 96.6342% and 84.7725%
membrane-bound rMpAOX [1]; [6]
  Fractional velocity, %: 99.0344% and 87.1837%
membrane-bound rMpAOX [1]; [7]
  Fractional velocity, %: 97.5117% and 94.5942%
membrane-bound rMpAOX [1]; [8]
  Fractional velocity, %: 99.3055% and 95.1323%
membrane-bound rMpAOX [1]; [9]
  Fractional velocity, %: 99.8162% and 99.1897%
membrane-bound rMpAOX [1]; [10]
  Fractional velocity, %: 99.1867% and 91.0587%
membrane-bound rMpAOX [1]; read-out: Fractional velocity, %, log[I], M -4.60206 (Fig2b)
  activity at 25 µM: 96.4%
membrane-bound rMpAOX [1]; read-out: Fractional velocity, %, log[I], M -5.60206 (Fig2b)
  activity at 2.5 µM: 98%
membrane-bound rMpAOX [1]; read-out: Fractional velocity, %, log[I], M -6.60206 (Fig2b)
  activity at 0.25 µM: 96.1%
membrane-bound rMpAOX [1]; read-out: Fractional velocity, %, log[I], M -7.60206 (Fig2b)
  activity at 0.025 µM: 95.6%
membrane-bound rMpAOX [1]; read-out: Fractional velocity, %, log[I], M -8.60206 (Fig2b)
  activity at 0.0025 µM: 94.9%
membrane-bound rMpAOX [1]; read-out: Fractional velocity, %, log[I], M -9.60206 (Fig2b)
  activity at 0.00025 µM: 93.7%
membrane-bound rMpAOX [1]; read-out: Fractional velocity, %, log[I], M -10.6021 (Fig2b)
  activity at 25 pM: 88.7%
membrane-bound rMpAOX [1]; up to the maximal tested concentration of 25 µM
  Effect on membrane-bound rMpAOX: did not exert any effect

## COc1c(O)c(C)c(CC=C(C)C)c(O)c1OC [Q1H2, ubiquinol-1]
Purified rMpAOX; 180 µM Q1H2
  Oxidation rate: 0.36 µmol/min/mg
Purified rMpAOX; M 4.29 (Fig3c, mean)
  Activity: 25.2546 nmol/min/mg
Purified rMpAOX; M 6.87 (Fig3c, mean)
  Activity: 30.5181 nmol/min/mg
Purified rMpAOX; M 10.99 (Fig3c, mean)
  Activity: 60.7997 nmol/min/mg
Purified rMpAOX; M 17.58 (Fig3c, mean)
  Activity: 87.5414 nmol/min/mg
Purified rMpAOX; M 28.12 (Fig3c, mean)
  Activity: 145.463 nmol/min/mg
Purified rMpAOX; M 45 (Fig3c, mean)
  Activity: 202.371 nmol/min/mg
Purified rMpAOX; M 71.99 (Fig3c, mean)
  Activity: 274.627 nmol/min/mg
Purified rMpAOX; M 115.19 (Fig3c, mean)
  Activity: 327.356 nmol/min/mg
Purified rMpAOX; M 184.3 (Fig3c, mean)
  Activity: 355.622 nmol/min/mg
Purified rMpAOX; [11]
  Km: 68.5 µM
  VMax: 504.1 nmol Q1 min^−1 mg^−1 and 504.1 ± 28.7 nmol Q1 min^−1 mg^−1

## COC1=C(OC)C(=O)C(C/C=C(\C)CC/C=C(\C)CC/C=C(\C)CC/C=C(\C)CC/C=C(\C)CC/C=C(\C)CC/C=C(\C)CC/C=C(\C)CC/C=C(\C)CCC=C(C)C)=C(C)C1=O [Q10]
[3]
  Km: 960 ± 760 µM
  VMax: 59.4 µmol Q10 min^−1 mg^−1 and 59.4 ± 6.6 µmol Q10 min^−1 mg^−1
